Measured values from PubChem BioAssay (NCI).
“And” between values parts separate entries of the source, which are not always exact repeats. Equal entries are not always repeated.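 In this assay, cells in 96-well plates receive the compound at five concentrations for 48 hours. Endpoints are linearly interpolated between the surrounding concentrations. GI50: concentration for 50% inhibition of growth. TGI marks complete inhibition of growth.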

Tests used:
Experiment in all cases: DTP human tumour cell line panel, 48 h
[1] = test system: HCT-15 colon
[2] = test system: UO-31 renal
[3] = test system: OVCAR-5 ovarian
[4] = test system: SK-MEL-2 melanoma
[5] = test system: HS 578T breast
[6] = test system: OVCAR-3 ovarian
[7] = test system: PC-3 prostate
[8] = test system: SNB-75 CNS
[9] = test system: NCI-H226 lung
[10] = test system: A549 NSCLC

Compound | GI50 [1] [µM] | TGI [1] | GI50 [2] [µM] | TGI [2] | GI50 [3] [µM] | TGI [3] | GI50 [4] [µM] | TGI [4] | GI50 [5] [µM] | TGI [5] | GI50 [6] [µM] | TGI [6] | GI50 [7] [µM] | TGI [7] | GI50 [8] | TGI [8] | GI50 [9] [µM] | TGI [9] | GI50 [10] [µM] | TGI [10]
COc1ccc(C(=NN=C(N)N)c2ccc(OC)cc2)cc1 | 4.73 | 19.9 µM | 3.46 | 15.6 µM | 5.1 | 21.6 µM | 2.51 | 12.6 µM | 1.75 | 6.93 µM | 1.74 | 4.76 µM | 3.04 | 14.4 µM | 1.84 µM | 11.3 µM | 4.37 | 18.3 µM | 4.91 | 18.5 µM
COc1cc(/C=C/c2cc(/C=C/c3ccc(O)c(OC)c3)n(C(=O)Nc3ccccc3Cl)n2)ccc1O | 0.332 | 4.15 µM | 0.159 | 1.17 µM | 1.65 | 5.5 µM | 0.397 | 1.6 µM | 0.114 | 0.89 µM | 0.45 | 3.68 µM | 0.392 | 2.22 µM | 0.259 µM | 0.959 µM | 0.617 | 2.74 µM | 0.336 | 2.08 µM
COc1ccc(CCN(CC(=O)N(CC(N)=O)C2CCC[C@@H]2OCc2ccccc2)C(=O)CN(C(=O)CN(CCc2ccc(Cl)cc2)C(=O)CN(C(=O)CN(C)Cc2ccccc2F)[C@H](C)C2CCCCC2)[C@H](C)C2CCCCC2)cc1OC (stereo not given in full) | 2.77 | > 50 µM | 2.2 | > 50 µM | 2.24 | > 50 µM | 0.946 | 2.84 µM | 7.26 | > 50 µM | 1.82 | > 50 µM | 1.37 | > 50 µM | 1.09 µM | > 50 µM | 1.86 | 41.7 µM | 1.59 | > 50 µM
COc1cc(N2C(=O)[C@H](c3ccccc3)C2c2ccc(SC)cc2)cc(OC)c1OC (stereo not given in full) | 0.034 | > 100 µM | 0.738 | > 100 µM | 0.0613 | > 100 µM | 0.0489 | > 100 µM | 0.0653 | > 100 µM | 0.0265 | 0.0667 µM | 0.0428 | > 100 µM | 0.04 µM | > 100 µM | 0.0301 | > 100 µM | 0.0374 | > 100 µM
COCCOC1=CC(=O)c2c(O)ccc(O)c2C1=O | 1.6 | 2.62 µM and 3.38 µM | 1.63 | 3.83 µM and 3.35 µM | 1.92 | 2.96 µM and 3.46 µM | 1.86 | 2.58 µM and 3.82 µM |  | 6.88 µM | 0.319 | 1.86 µM and 1.13 µM | 2.67 | 4.77 µM and 8.28 µM | 1.69 µM | 3.43 µM and 3.09 µM |  | 4.01 µM and 4.16 µM | 1.74 | 4.15 µM and 3.78 µM
CC(C)(C)c1cc(/C=N/NC(=O)c2ccccc2NC(=O)c2cccs2)c(O)c(C(C)(C)C)c1 | 0.22 | > 100 µM | 0.269 | 15.7 µM | 2.83 | 62.4 µM | 20.2 | > 100 µM | 5.13 | 42.6 µM | 1.06 | 10.5 µM | 2.8 | > 100 µM | 13.1 µM | > 100 µM | 3 | > 100 µM | 0.796 | 17.9 µM
COc1cc(-c2nc3sc(C)cn3c2/C=C2\C(=O)Nc3ccccc32)c(Br)c(OC)c1OC | 29.1 | > 100 µM | 37.1 | > 100 µM | 55.9 | > 100 µM | 33.6 | > 100 µM | 31.5 | 74.6 µM | 22.9 | 51 µM | 32.2 | > 100 µM | 22.2 µM | 51.5 µM | 44.2 | > 100 µM | 44 | > 100 µM
Cc1ccc2cccc(OC(=O)Nc3cccc(C(F)(F)F)c3)c2n1 | 3.14 | 11.3 µM | 2.4 | 8.99 µM | 6.44 | 32.1 µM | 3.47 | 12.1 µM | 3.53 | 18.9 µM | 3.35 | 9.61 µM | 2.74 | 9.79 µM | 2.39 µM | 11.7 µM | 3.61 | 14.1 µM | 3.44 | 13.4 µM
Clc1cc(Cl)c(OCCCCCCN2CCNCC2)c(Cl)c1 | 1.82 | 4.09 µM | 2 | 5.44 µM | 2.82 | 8.42 µM | 5.52 | 18.1 µM | 3.35 | 15.2 µM | 2.76 | 9.05 µM | 1.8 | 4.03 µM | 2.64 µM | 11.7 µM | 12.3 | 30.8 µM | 10.6 | 25.3 µM
C#CC(=O)Nc1cccc2c1cc(C)n2-c1nc2c(c(NCc3ccccc3)n1)CCCC2 | 0.167 | 0.409 µM | 0.0466 | 0.124 µM | 0.279 | 0.977 µM | 1.25 | 2.92 µM | 0.353 | 3.07 µM |  |  | 0.186 | 0.351 µM | 0.141 µM | 0.294 µM | 0.25 | 0.644 µM | 1.97 | 4.1 µM
O=C(O)c1cc(=O)cc(C(=O)O)o1 | > 100 | > 100 µM | > 100 | > 100 µM | > 100 | > 100 µM | > 100 | > 100 µM | > 100 | > 100 µM | > 100 | > 100 µM | > 100 | > 100 µM | > 100 µM | > 100 µM | > 100 | > 100 µM | > 100 | > 100 µM
O=C(COc1cccc(/C=C2\CSc3ccc(Cl)cc3C2=O)c1)c1ccc(Cl)cc1 | 1.8 | 3.9 µM | 12 | 27.2 µM | 12.5 | 29.8 µM | 11.2 | 24.5 µM | 2.46 | 6.91 µM | 3.8 | 13.6 µM | 3.35 | 11.4 µM | 14 µM | 37.8 µM | 13.4 | 44.4 µM | 77.6 | > 100 µM
COc1cc(/C=C2\CCC/C(=C\c3ccc(O)c(OC)c3)C2=O)ccc1O | 1.49 | 8.44 µM and 3.36 µM | 1.17 | 4.82 µM and 2.83 µM | 2.3 | 26.6 µM and 5.67 µM | 1.96 | 12.7 µM and 4.94 µM | 2.25 | 26.5 µM and 8.93 µM | 1.56 | 10.8 µM and 3.39 µM | 3.14 | 23.7 µM and 13.6 µM | 3.64 µM and 1.99 µM | 12.7 µM and 13.7 µM |  | 16.8 µM | 1.96 | 10.8 µM and 5.04 µM
CC(=O)CC/C=C(\C)[C@H](O)[C@H](C)C(=O)O[C@H]1C[C@H](C)C=C2C=C[C@@]3(C)O[C@@H](O)CC(=O)[C@]3(C)[C@H]21 | 0.545 | 7.95 µM | 0.383 | 2.9 µM | 1.04 | 6.62 µM | 0.419 | 1.91 µM | 0.492 | 4.48 µM | 0.614 | 3.52 µM | 0.61 | 3.31 µM | 0.686 µM | 2.61 µM | 0.423 | 4.6 µM | 1.24 | 9.17 µM
COC(=O)[C@]12CC[C@@H](C)[C@H](C)[C@@H]1C1=CC[C@@H]3[C@@]4(C)C[C@@H](OC(=O)/C=C/c5ccccc5)[C@H](O)[C@@](C)(CO)[C@@H]4[C@H](O)C[C@@]3(C)[C@]1(C)CC2 | 1.93 | 4.02 µM | 2.56 | 11.2 µM | 2.17 | 6 µM | 3.81 | 15.5 µM | 1.88 | 4.71 µM | 1.98 | 4.53 µM | 2.55 | 8.93 µM | 2.08 µM | 12.9 µM | 2.56 | 9.15 µM | 3.11 | 12 µM
Cn1cc(-c2nc(-c3c[nH]c4ncccc34)cs2)c2ccccc21 | 1.47 | > 100 µM | > 100 | > 100 µM | 0.762 | 73.9 µM | 54.7 | > 100 µM | > 100 | > 100 µM | 4.46 | 24.7 µM | 16.4 | > 100 µM | 18.5 µM | > 100 µM | 14.2 | > 100 µM | 26.6 | > 100 µM
COc1ccc(/C=C2\COc3ccc(O)c(O)c3C2=O)c(OC)c1OC | 1.74 | 5.51 µM | 1.42 | 3.02 µM | 3.64 | 12.8 µM | 4.7 | 31.1 µM | 4.22 | > 100 µM | 2.94 | 11.5 µM | 2.35 | 61.8 µM | 3.09 µM | 86.6 µM | 2.66 | 7.25 µM | 3.11 | > 100 µM
Oc1ccc2ccccc2c1N=Nc1cc(Cl)ccc1Cl |  | > 50 µM |  | > 50 µM |  | > 50 µM |  | > 50 µM |  | 21.4 µM |  | > 50 µM |  | > 50 µM |  | 23.9 µM |  | > 50 µM |  | > 50 µM
O=C1C=CC(=C(c2ccccc2)c2ccc(O)cc2)C=C1 |  | 35.3 µM |  | 29.5 µM |  | 49.7 µM |  | 32 µM |  | 47.7 µM |  | 32.5 µM |  | 47.5 µM |  | 38.2 µM |  | 38 µM |  | 36.8 µM
CC(C)[C@@](O)(c1ccc2cc(OC(F)F)c(OC(F)F)cc2c1)c1cn[nH]n1 | 15.3 | 37.4 µM | 11.6 | 26.4 µM | 21.7 | 55.6 µM | 17.4 | 34.3 µM | 21.1 | 73.7 µM | 16.3 | 37.1 µM | 14.9 | 36 µM | 15.1 µM | 40.4 µM | 22.3 | 58.2 µM | 17.6 | 38.7 µM
Cn1cc(C2=C(c3cn(-c4ccccc4)c4ccccc34)C(=O)NC2=O)c2ccccc21 | 10.7 | > 25 µM | 5.35 | > 25 µM | > 25 | > 25 µM | 9.14 | > 25 µM | > 14.6 | > 25 µM | 14 | > 25 µM | 9.86 | > 25 µM | 5.76 µM | > 25 µM | > 25 | > 25 µM | 11.8 | > 25 µM
Cc1cc(N2CCCCC2)nc(NC2CCCC(Nc3ccnc4cc(Cl)ccc34)C2)n1 (stereo not given) | 0.825 | 2.17 µM | 1.2 | 2.48 µM | 1.88 | 4.84 µM |  |  | 1.55 | 3.95 µM | 1.63 | 3.42 µM | 1.29 | 2.86 µM | 1.39 µM | 3.18 µM | 1.99 | 3.9 µM |  | 
COc1ccc(C2CC(c3ccc(Nc4ccnc5cc(Cl)ccc45)cc3)=NN2C=O)cc1 (stereo not given) | 2.97 | > 100 µM | 19.7 | > 100 µM | > 100 | > 100 µM |  |  | > 100 | > 100 µM | 14.5 | 55.4 µM | 9.43 | > 100 µM | > 100 µM | > 100 µM | > 100 | > 100 µM | 50.3 | > 100 µM
CC1(C)N=C(N)N=C(N)N1c1ccc(OCCCNC(=O)Nc2cccc(S(=O)(=O)F)c2)c(Cl)c1 | 29.2 | > 100 µM | > 100 | > 100 µM | 3.98 | > 100 µM |  |  | 5.08 | > 100 µM | 8.12 | > 100 µM | 1.23 | > 100 µM | 2.73 µM | > 100 µM | 8.37 | > 100 µM | 1.69 | > 100 µM
N#Cc1c(NC(=O)c2ccc(F)cc2)sc2c1CCCC2 | > 25 | > 25 µM | > 25 | > 25 µM | > 25 | > 25 µM |  |  | > 25 | > 25 µM | > 25 | > 25 µM | > 25 | > 25 µM | > 25 µM | > 25 µM | > 25 | > 25 µM | > 25 | > 25 µM
